Test [1] can be described thus: Antiproliferative activity against mouse Colon 26-L5 cells by MTT assay. The test is classed as functional, cell-based. In general terms: Tetrazolium dyes change colour on reduction, which living cells bring about.
Test [2] has as its system HT-1080. As to the kind of experiment: Antiproliferative activity against human HT1080 cells by MTT assay. The test is classed as functional, cell-based.

Results on 9 molecules are retold here after ChEMBL document CHEMBL1150140, “Three new C-14 oxygenated taxanes from the wood of Taxus yunnanensis” (J Nat Prod, 2002).

In brackets after ≈: the same amount, converted by molar mass.

For `C=C1[C@@H](OC(C)=O)CC[C@@]2(C)C[C@H](OC(C)=O)C3=C(C)C[C@H](OC(=O)[C@@H](C)CC)[C@@H]([C@@H](OC(C)=O)[C@H]12)C3(C)C`, the results for the EC50 in test [1] and in test [2] were 84.1 µg/mL (≈ 154 µM) and 84.9 µg/mL (≈ 155 µM), respectively.
As to `COc1cc(C[C@@H](CO)[C@H](CO)Cc2ccc(O)c(OC)c2)ccc1O` [(+)-SECOISOLARICIRESINOL], the EC50 (as a rule, the midpoint of the concentration-response curve) in test [1] is 60.2 µg/mL (≈ 166 µM); in test [2] it was 5.9 µg/mL (≈ 16.3 µM).
With `COc1cc([C@H]2c3cc(O)c(OC)cc3C[C@H]3C(=O)OC[C@H]23)ccc1O` [ALPHA-CONIDENDRIN], the EC50 in test [1] and in test [2] was over 100 µg/mL in each case.
Consider `O=c1[nH]cc(F)c(=O)[nH]1` [FLUOROURACIL], for which the results for the EC50 in test [1] and in test [2] were 0.07 µg/mL (≈ 0.538 µM) and 0.29 µg/mL (≈ 2.23 µM), respectively.
Taken in the same sequence, the figures for `C=C1[C@@H](OC(C)=O)CC[C@@]2(C)C[C@H](O)C3=C(C)C[C@H](OC(=O)[C@@H](C)CC)[C@@H]([C@@H](OC(C)=O)[C@H]12)C3(C)C` [HONGDOUSHAN A] were 40.1 µg/mL (≈ 79.5 µM) and 61 µg/mL (≈ 121 µM).
On to `C=C1[C@@H](OC(C)=O)CC[C@@]2(C)C[C@H](O)C3=C(C)C[C@H](OC(=O)CC)[C@@H]([C@@H](OC(C)=O)[C@H]12)C3(C)C` [HONGDOUSHAN B], for which the EC50 was 70.4 µg/mL (≈ 148 µM) in test [1] and over 100 µg/mL in test [2].
For `C=C1[C@@H](O)CC[C@@]2(C)C[C@H](O)C3=C(C)C[C@H](OC(=O)[C@@H](C)CC)[C@@H]([C@@H](OC(C)=O)[C@H]12)C3(C)C` [HONGDOUSHAN C], in that order: 3.8 µg/mL (≈ 8.21 µM) and 61.1 µg/mL (≈ 132 µM).
Taken in the same sequence, the figures for `C=C1[C@@H](OC(C)=O)CC[C@]2(C)[C@@H]1C[C@@H]1C[C@H](OC(C)=O)C(C)=C([C@@H](OC(C)=O)[C@@H]2OC(C)=O)C1(C)C` [TAXUSIN] were 51.7 µg/mL (≈ 102 µM) and 61.4 µg/mL (≈ 122 µM).
With `CC(=O)O[C@H]1C[C@]2(C(C)(C)O)C(=C1C)[C@@H](O)[C@@H](OC(=O)c1ccccc1)[C@]1(C)[C@@H](OC(C)=O)C[C@H](O)[C@@]3(OC(C)=O)CO[C@H]2[C@H]31` [TAXUYUNNANINE E], the EC50 in test [1] and in test [2] was over 100 µg/mL in each case.
